US20030225029A1 (priority 2002, published 2003)
pEC50, pIC50: −log10 of the molar value. Where a name gives a salt, the structure may show the parent alone. Read-outs that look alike come from different tables or passages of the source.

Experiments:
[1] = test system: HIV-1; conditions: cited from earlier work; for Impact of monotherapy: log decrease in HIV-1 RNA: for six months to one year
[2] = test system: HIV-1; conditions: PBMC; cited from earlier work
[3] = test system: HIV-1; conditions: T-cell lines; cited from earlier work
[4] = in vivo; cited from earlier work
[5] = in vivo; cited from earlier work; remark: listed apart in the source
[6] = test system: HCV; assay: Antiviral activity of gemcitabine after single treatment in an HCV-infected patient; assay type: in vivo, Human
Text: Before the second dosage the baseline viral load was 6.49 log copies/mL. […] The HCV RNA measurement eight hours after the second dosage was 4.04 log copies/mL, indicating an approximate 2.5 log drop in eight hours.

[7] = test system: HCV replicon RNA; assay: HCV replicon system in Huh7 cells, Q-RT-PCR of replicon RNA; assay type: cell-based
[8] = test system: host DNA and RNA polymerases; assay: Reduction of cellular DNA (rDNA) or RNA (rRNA) levels in Huh7 replicon cells; assay type: cell-based
[9] = molecular target: cytidine deaminase (Homo sapiens, UniProt P32320); conditions: intracellular cytidine deaminase; cited from earlier work
[10] = test system: locally advanced or metastatic pancreatic cancer; conditions: 1000 mg/m^2 by 30 min infusion once weekly; 63 patients per arm; cited from earlier work
[11] = test system: pancreatic cancer; conditions: 63 patients previously treated with 5-FU; cited from earlier work
[12] = molecular target: deoxycytidine kinase (dCK) (Cricetulus griseus, UniProt G3I4C0); conditions: phosphorylation to the monophosphate; partially purified enzyme from CHO cells; cited from earlier work
[13] = human, in vivo; cited from earlier work
[14] = cited from earlier work
[15] = human, in vivo; cited from earlier work; remark: listed apart in the source
[16] = in vivo; cited from earlier work; remark: listed apart in the source
[17] = test system: friend leukemia virus; conditions: under conditions that allowed normal weight gain; cited from earlier work
[18] = test system: locally advanced or metastatic NSCLC; conditions: 28-day cycle, cited from earlier work; for objective response rate: first-line NSCLC
[19] = test system: stage IIIB or Stage 1V NSCLC; conditions: 21-day cycle, cited from earlier work
[20] = molecular target: T1, human DNA polymerase a (Homo sapiens, UniProt P09884); conditions: dCTP over dFdCTP; cited from earlier work
T1 sequence (P09884 1-1462): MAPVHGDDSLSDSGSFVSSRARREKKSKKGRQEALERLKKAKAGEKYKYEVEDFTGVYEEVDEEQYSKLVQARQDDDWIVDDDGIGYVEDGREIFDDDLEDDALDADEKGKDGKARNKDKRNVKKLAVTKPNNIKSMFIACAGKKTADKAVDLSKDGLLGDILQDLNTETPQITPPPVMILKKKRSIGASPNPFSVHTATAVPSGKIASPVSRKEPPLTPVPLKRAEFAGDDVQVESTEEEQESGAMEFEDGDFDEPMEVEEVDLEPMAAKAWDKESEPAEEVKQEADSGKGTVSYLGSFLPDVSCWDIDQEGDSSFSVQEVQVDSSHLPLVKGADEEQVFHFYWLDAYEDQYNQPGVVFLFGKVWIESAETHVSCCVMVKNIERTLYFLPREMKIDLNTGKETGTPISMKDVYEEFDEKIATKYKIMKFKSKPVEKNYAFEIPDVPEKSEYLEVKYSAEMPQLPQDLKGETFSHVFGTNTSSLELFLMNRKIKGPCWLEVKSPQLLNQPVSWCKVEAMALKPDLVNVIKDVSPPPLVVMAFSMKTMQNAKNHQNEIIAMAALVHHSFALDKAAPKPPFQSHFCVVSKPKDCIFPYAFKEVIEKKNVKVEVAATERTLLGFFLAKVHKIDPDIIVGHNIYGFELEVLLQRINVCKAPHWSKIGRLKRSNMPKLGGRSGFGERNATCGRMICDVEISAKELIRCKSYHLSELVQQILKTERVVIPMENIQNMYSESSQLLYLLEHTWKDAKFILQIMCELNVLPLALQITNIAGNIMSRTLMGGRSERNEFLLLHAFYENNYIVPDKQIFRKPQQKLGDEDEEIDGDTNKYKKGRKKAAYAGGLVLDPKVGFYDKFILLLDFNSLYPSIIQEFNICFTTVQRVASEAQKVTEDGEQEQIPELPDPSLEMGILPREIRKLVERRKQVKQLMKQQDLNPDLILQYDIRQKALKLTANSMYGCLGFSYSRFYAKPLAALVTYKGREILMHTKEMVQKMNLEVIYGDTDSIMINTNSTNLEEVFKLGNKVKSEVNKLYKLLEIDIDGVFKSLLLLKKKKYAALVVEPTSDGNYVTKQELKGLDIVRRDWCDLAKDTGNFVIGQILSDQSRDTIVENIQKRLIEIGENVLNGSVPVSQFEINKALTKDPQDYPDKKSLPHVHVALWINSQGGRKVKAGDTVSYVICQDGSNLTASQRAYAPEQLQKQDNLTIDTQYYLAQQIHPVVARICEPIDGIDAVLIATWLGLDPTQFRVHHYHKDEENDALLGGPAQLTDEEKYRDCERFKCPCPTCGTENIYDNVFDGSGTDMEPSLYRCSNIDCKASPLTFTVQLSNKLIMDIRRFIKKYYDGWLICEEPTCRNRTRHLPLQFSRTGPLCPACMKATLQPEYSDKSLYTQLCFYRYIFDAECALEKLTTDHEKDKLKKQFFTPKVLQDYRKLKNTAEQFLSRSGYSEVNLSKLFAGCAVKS

[21] = molecular target: human DNA polymerase ε (Homo sapiens, UniProt Q07864); conditions: dCTP over dFdCTP; cited from earlier work
Sequence of human DNA polymerase ε (Q07864 whole entry): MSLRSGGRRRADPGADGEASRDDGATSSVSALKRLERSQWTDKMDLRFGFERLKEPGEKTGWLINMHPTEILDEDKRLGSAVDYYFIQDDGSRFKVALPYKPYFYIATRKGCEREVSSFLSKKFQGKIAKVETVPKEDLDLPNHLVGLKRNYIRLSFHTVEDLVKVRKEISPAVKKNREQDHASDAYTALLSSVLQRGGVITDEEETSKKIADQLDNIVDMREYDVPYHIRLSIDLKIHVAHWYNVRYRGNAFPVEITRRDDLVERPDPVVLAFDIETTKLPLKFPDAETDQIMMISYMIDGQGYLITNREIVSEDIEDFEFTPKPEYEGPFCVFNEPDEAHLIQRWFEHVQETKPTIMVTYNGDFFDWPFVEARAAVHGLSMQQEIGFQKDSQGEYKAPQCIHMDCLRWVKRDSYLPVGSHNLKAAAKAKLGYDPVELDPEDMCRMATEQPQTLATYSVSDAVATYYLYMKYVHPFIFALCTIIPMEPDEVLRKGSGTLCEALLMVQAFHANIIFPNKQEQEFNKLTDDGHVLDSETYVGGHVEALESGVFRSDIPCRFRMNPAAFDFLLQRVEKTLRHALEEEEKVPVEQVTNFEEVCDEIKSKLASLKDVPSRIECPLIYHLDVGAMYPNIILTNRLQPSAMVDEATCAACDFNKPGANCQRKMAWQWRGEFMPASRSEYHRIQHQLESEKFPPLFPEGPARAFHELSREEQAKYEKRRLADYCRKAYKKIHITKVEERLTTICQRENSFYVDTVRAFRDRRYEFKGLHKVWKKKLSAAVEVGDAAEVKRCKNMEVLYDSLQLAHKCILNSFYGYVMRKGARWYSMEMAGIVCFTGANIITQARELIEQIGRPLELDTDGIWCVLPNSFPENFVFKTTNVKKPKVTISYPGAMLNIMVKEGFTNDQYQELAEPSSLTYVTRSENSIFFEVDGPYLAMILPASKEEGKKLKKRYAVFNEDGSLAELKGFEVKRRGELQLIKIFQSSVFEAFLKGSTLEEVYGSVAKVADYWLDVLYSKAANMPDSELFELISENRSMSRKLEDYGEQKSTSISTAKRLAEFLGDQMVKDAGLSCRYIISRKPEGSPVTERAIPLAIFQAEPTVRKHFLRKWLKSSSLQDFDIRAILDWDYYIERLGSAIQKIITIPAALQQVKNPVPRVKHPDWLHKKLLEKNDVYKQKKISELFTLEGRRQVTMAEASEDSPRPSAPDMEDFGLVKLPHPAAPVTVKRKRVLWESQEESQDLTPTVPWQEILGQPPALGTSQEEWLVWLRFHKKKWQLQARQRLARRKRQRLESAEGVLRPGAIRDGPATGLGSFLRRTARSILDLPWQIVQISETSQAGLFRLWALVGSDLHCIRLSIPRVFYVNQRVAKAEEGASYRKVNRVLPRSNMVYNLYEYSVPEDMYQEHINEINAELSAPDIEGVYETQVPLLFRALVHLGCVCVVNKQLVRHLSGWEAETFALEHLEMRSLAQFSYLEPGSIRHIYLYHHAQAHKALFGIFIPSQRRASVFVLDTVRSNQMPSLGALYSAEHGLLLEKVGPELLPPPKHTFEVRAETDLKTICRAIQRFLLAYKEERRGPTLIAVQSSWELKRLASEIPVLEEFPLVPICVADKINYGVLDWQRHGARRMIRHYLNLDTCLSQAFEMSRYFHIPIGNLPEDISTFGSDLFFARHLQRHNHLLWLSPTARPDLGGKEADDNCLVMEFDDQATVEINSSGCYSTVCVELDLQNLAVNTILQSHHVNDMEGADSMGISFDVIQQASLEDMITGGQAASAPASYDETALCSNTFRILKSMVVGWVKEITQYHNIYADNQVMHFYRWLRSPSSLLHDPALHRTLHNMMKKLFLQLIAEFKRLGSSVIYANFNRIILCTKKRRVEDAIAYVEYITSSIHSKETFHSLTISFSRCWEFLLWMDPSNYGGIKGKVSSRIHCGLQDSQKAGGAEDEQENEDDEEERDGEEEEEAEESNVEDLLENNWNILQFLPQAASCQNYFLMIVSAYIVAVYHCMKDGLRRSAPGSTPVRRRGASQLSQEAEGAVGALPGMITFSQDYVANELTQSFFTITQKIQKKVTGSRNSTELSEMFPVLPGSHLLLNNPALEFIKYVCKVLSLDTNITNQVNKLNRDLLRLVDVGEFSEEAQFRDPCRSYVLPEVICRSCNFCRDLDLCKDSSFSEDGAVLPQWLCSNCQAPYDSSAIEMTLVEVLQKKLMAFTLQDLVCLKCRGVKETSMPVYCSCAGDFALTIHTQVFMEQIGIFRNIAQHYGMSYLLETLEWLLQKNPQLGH

Sequence of deoxycytidine kinase (dCK) (G3I4C0 entry or part of it): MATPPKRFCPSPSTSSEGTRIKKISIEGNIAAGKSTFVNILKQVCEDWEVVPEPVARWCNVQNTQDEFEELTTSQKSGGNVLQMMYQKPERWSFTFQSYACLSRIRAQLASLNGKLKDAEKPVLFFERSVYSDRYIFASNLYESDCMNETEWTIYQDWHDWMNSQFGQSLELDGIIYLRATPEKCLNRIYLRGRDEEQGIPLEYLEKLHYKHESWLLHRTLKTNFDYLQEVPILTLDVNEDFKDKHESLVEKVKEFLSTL
Sequence of cytidine deaminase (P32320 whole entry, the tested form may be a part): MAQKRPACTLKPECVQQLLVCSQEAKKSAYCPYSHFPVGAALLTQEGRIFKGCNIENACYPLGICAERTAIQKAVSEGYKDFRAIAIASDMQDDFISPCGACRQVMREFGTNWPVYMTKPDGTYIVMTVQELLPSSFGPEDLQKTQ

Compound: Cc1cn([C@H]2C=C[C@@H](CO)O2)c(=O)[nH]c1=O [Stavudine, 3′-deoxy-2′,3′-didehycrothymidine]
- Impact of monotherapy: log decrease in HIV-1 RNA [1]: ˜0.8 log decrease in HIV-1 RNA for six months to one year
- pEC50 [2]: 8.05
- pEC50 [3]: 4.60 to 9.00
- Adverse events [4]: Peripheral neuropathy
- Parent drug plasma-serum half-life [5]: 1.0 to 1.6 h

Compound: Nc1nc(=O)n([C@@H]2CS[C@H](CO)O2)cc1F [Emtricitabine]
- Impact of monotherapy: log reduction ([1]; at 14 days): ˜2 log reduction at 14 days
- pEC50 [2]: 8.00 to 9.15
- pEC50 [3]: 6.30 to 8.05
- Adverse events [4]: Anemia
- Parent drug plasma-serum half-life [5]: 1.0 to 4.0 h

Compound: Nc1ccn([C@@H]2O[C@H](CO)[C@@H](O)C2(F)F)c(=O)n1 [gemcitabine HCl]
- tolerance ([6]; 1200 mg in 1000 minutes associated with oxaliplatine): acceptable

Compound: Nc1ccn([C@@H]2O[C@H](CO)[C@@H](O)C2(F)F)c(=O)n1 [Gemcitabine, β-D-2′,2′-difluorocytidine]
- reduction of the replicon HCV RNA (FIG. 2) ([7]; 4-days incubation): dose-dependant reduction
- EC90 ([7]; Hepatitis C virus, Huh-7, 96 h, Huh7 cells, 4-days incubation, read-out: EC90 (1-log reduction of replicon RNA) (converted)): ~70 nM
- pEC50 ([7]; Hepatitis C virus, Huh-7, Huh7 cells harboring self-replicating HCV RNA, read-out: EC50, reduction of HCV RNA levels): 7.40
- pIC50 ([8]; Homo sapiens, Huh-7): 6.62
- baseline viral load ([6]; before the second dosage, day after first 1200 mg dose): 6.49 log copies/mL
- HCV RNA measurement ([6]; eight hours after the second dosage (approximately 700 mg)): 4.04 log copies/mL
- drop in HCV RNA ([6]; in eight hours after the second dosage): ~2.5 log
- Km [9]: 96 µM
- clinical benefit response, survival, and time to disease progression compared to 5-FU [10]: statistically significant increases
- clinical benefit response rate [11]: 27%
- median survival [11]: 3.9 months
- Km [12]: 3.6 µM
- plasma protein binding [13]: negligible
- half-life ([14]; after short infusion (<70 min)): 0.533 to 1.53 h
- Volume of distribution ([14]; human, in vivo): 370 L/m^2
- ADVERSE EFFECTS [15]: Thrombocytopenia,
- dose-limiting toxicity [15]: myelosuppression

Compound: O=c1[nH]cnc2c1ncn2[C@H]1CC[C@@H](CO)O1 [Didanosine, 2′,3′-dideoxyinosine]
- Impact of monotherapy: log decrease in HIV-1 RNA [1]: ˜0.8 log decrease in HIV-1 RNA for six months to one year
- pEC50 [2]: 8.00
- pEC50 [3]: 7.70 to 8.70
- Adverse events [4]: Diarrhea, nausea, vomiting, peripheral neuropathy, pancreatitis
- Parent drug plasma-serum half-life [5]: 0.6 to 2.7 h

Compound: Nc1ccn([C@H]2CC[C@@H](CO)O2)c(=O)n1 [Zalcitabine, 2′,3′-dideoxycytidine]
- Impact of monotherapy (comparison in words) ([1]; in vivo): Less effective than either ddI or AZT
- pEC50 [2]: 6.80 to 8.70
- pEC50 [3]: 7.30 to 7.52
- Adverse events [4]: Peripheral neuropathy, mouth ulcers
- Parent drug plasma-serum half-life [5]: 1.0 to 3.0 h

Compound: NC(=O)c1ncn([C@@H]2O[C@H](CO)[C@@H](O)[C@H]2O)n1 [Ribavirin]
- teratogenicity [16]: teratogenic

Compound: O=c1ccn([C@@H]2O[C@H](CO)[C@@H](O)C2(F)F)c(=O)[nH]1 [dFdU, 2′,2′-difluorodeoxyuridine]
- dCT HCV ([7]; 7.0 μM): 6.39
- ddct ([7]; 7.0 μM, HCV dCt minus rRNA dCt): 4.42
- dCt rRNA ([8]; 7.0 μM): 1.96

Compound: Abacavir
- Impact of monotherapy: log reduction in HIV-1 RNA ([1]; at four weeks): Approximate 1.8 log reduction in HIV-1 RNA at four weeks
- pEC50 [3]: 5.39
- Adverse events [4]: Nausea, vomiting, headache, (hypersensi- tivity reaction)
- Parent drug plasma-serum half-life [5]: 1.0 to 2.0 h

Compound: Nc1ccn([C@@H]2O[C@H](CO)[C@@H](O)C2(F)F)c(=O)n1 [cytidine analog]
- inhibition of polyerythroblastosis [17]: 90%
- inhibition of spleen enlargement [17]: 90%

Compound: N.N.[Cl][Pt][Cl] [cisplatin]
- objective response rate [18]: 10%

Compound: Cc1cn([C@H]2CC(N=[N+]=[N-])[C@@H](CO)O2)c(=O)[nH]c1=O (stereo partly shown) [Zidovudine, 1-(3′Azido-2′-deoxyribosyl)thymine]
- Impact of monotherapy: log decrease in HIV-1 RNA [1]: One log decrease in HIV-1 RNA for six months to one year 1
- pEC50 [2]: 7.60 to 8.40
- pEC50 [3]: 8.22 to 8.30
- Adverse events [4]: Nausea, vomiting, headache, neutropenia, anemia, insomnia
- Parent drug plasma-serum half-life [5]: 0.8 to 1.9 h

Compound: Nc1ccn([C@H]2C[C@H](O)[C@@H](CO)O2)c(=O)n1 [deoxycytidine]
- Km [12]: 1.6 µM

Compound: gemcitabine plus cisplatin
- objective response rate [18]: 26%
- Median survival time and median time to disease progression compared to cisplatin alone [18]: significantly greater
- median time to disease progression and objective response rates compared to etoposide plus cisplatin [19]: significantly greater
- survival, difference between the two treatment arms ([19]; vs etoposide plus cisplatin): no significant difference

Compound: Nc1ccn([C@@H]2O[C@H](COP(=O)(O)OP(=O)(O)OP(=O)(O)O)[C@@H](O)C2(F)F)c(=O)n1 [dFdCTP]
- preference of the polymerase for the normal nucleotide (dCTP) [20]: 20 fold
- preference of the polymerase for the normal nucleotide (dCTP) [21]: 20 fold
